Measurements from US20060167109A1, “Methods of reducing rhinovirus contagion and related compositions” (priority 2002, published 2006).
Values after ≈ are worked out from the molar mass of the structure shown.

Experiments:
[1] = tested on: reovirus type 1, strain Lang (REOV-1); assay: Virus cytopathic effect assay for other viruses; format: cell-based; details: Mammalian orthoreovirus 1
Experimental: (§1) The sensitivity of non-picornaviruses to pleconaril was determined in virus cytopathic effect assays similar to the HRV assay for the following viruses: respiratory syncytial virus, strain Long (RSV-A) and herpes simplex virus type II, strain Curtis (HSV-2) on HEp2 cells; influenza virus, strain WSN (FLUA) on MDBK cells; dengue virus type 2, strain New Guinea (DEN-2), and measles virus, strain Edmonston (MeV) on Vero cells; human adenovirus, type 5 (HAdV-5) on HeLa cells (at 33° C.); human coronavirus, strain 229E (Corona) on MRC-5 cells (at 33° C.); and mumps virus, strain Enders (Mumps), reovirus type 1, strain Lang (REOV-1), and parainfluenza virus type 3, strain C243 (HPIV-3) on LLC-MK2d cells. All specificity assays were performed at 37° C. and 5% CO2 except where noted above.

[2] = tested on: respiratory syncytial virus, strain Long (RSV-A); assay: Virus cytopathic effect assay for other viruses; format: cell-based; details: human respiratory syncytial virus, HEp-2
Experimental: as §1

[3] = tested on: influenza virus, strain WSN (FLUA); assay: Virus cytopathic effect assay for other viruses; format: cell-based; details: unidentified influenza virus, MDBK
Experimental: as §1

[4] = tested on: dengue virus type 2, strain New Guinea (DEN-2); assay: Virus cytopathic effect assay for other viruses; format: cell-based; details: Vero
Experimental: as §1

[5] = tested on: human coronavirus, strain 229E (Corona); assay: Virus cytopathic effect assay for other viruses; format: cell-based; details: Human coronavirus 229E, MRC5; Corona on MRC-5 cells at 33° C.
Experimental: as §1

[6] = tested on: parainfluenza virus type 3, strain C243 (HPIV-3); assay: Virus cytopathic effect assay for other viruses; format: cell-based; details: Human respirovirus 3
Experimental: as §1

[7] = tested on: mumps virus, strain Enders (Mumps); assay: Virus cytopathic effect assay for other viruses; format: cell-based; details: Mumps orthorubulavirus
Experimental: as §1

[8] = tested on: herpes simplex virus type II, strain Curtis (HSV-2); assay: Virus cytopathic effect assay for other viruses; format: cell-based; details: Human alphaherpesvirus 2, HEp-2
Experimental: as §1

[9] = tested on: measles virus, strain Edmonston (MeV); assay: Virus cytopathic effect assay for other viruses; format: cell-based; details: Measles morbillivirus, Vero
Experimental: as §1

[10] = tested on: human adenovirus, type 5 (HAdV-5); assay: Virus cytopathic effect assay for other viruses; format: cell-based; details: Human mastadenovirus C, HeLa
Experimental: as §1

[11] = tested on: 10 other human viral pathogens; assay: Antiviral specificity, viral cytopathic effect assays; format: cell-based
[12] = tested on: human plasma proteins; assay: Plasma protein binding; format: in vitro ADME
[13] = tested on: HRV serotype 50; assay: Reversibility of pleconaril binding; format: cell-based, human rhinovirus
Experimental: (§2) The first question presented is whether pleconaril could bind to human rhinoviruses irreversibly. Various HRVs were incubated overnight at 4° C. with pleconaril at a concentration approximately 10 times the IC50 value. Parallel samples were incubated in medium with 0.5% dimethyl sulfoxide (DMSO) alone. The next day, samples were diluted 10,000-fold into pleconaril-free medium and incubated an additional 24 hrs at 4° C., followed by titration by plaque assay.
(§3) After 24 hours, virus samples were diluted 10,000-fold in culture medium and incubated an additional 24 hours at 4° C. Virus titers in the DMSO- and pleconaril-treated samples were then determined by plaque assay in the appropriate cell line as described below.
(§4) In some experiments, virus titers were determined by plaque assay. Cells in 6 well plates were infected with 1 mL of 10-fold dilutions of virus in duplicate for 1 hour at the appropriate incubation temperature. The inoculum was then removed and the cells were overlaid with 3 mL of agarose overlay medium (Eagles minimum essential medium (Life Technologies, Grand Island, N.Y.) with 50 mM Hepes buffer, pH 7.2, 5% FBS, antibiotics, and 1.5% SeaPlaque (HRVs)). The HRV overlay medium was further supplemented with 30 mM MgCl2 and 15 μg/mL DEAE dextran. […] After rinsing and drying, plaques were read manually.

[14] = tested on: HRV serotype 1A; assay: Reversibility of pleconaril binding; format: cell-based, human rhinovirus
Experimental: as §2, §3, §4

[15] = tested on: HRV serotype 14; assay: Reversibility of pleconaril binding; format: cell-based, human rhinovirus
Experimental: as §2, §3, §4

[16] = tested on: HRV serotype 2; assay: Reversibility of pleconaril binding; format: cell-based, human rhinovirus
Experimental: as §2, §3, §4

[17] = tested on: HRV serotype 89; assay: Reversibility of pleconaril binding; format: cell-based, human rhinovirus
Experimental: as §2, §3, §4

[18] = tested on: HRV serotype 3; assay: Reversibility of pleconaril binding; format: cell-based, human rhinovirus
Experimental: as §2, §3, §4

[19] = tested on: HRV serotype 5; assay: Reversibility of pleconaril binding; format: cell-based, human rhinovirus; details: about 10 times IC50, then diluted 10,000-fold, plaque assay
Experimental: as §2, §3, §4

[20] = log P; format: physicochemical
[21] = tested on: HRV serotype 1B; assay: HRV cytopathic effect assay; format: cell-based; details: Human rhinovirus sp.
Experimental: (§5) For sensitivity testing to pleconaril, the appropriate cells were seeded into 96 well plates at a concentration of 4×10^4/well. After an overnight incubation at 37° C., the medium was removed and the cells were infected with 150 μL of a dilution of virus previously titrated to give ≧85% lysis of the monolayer after 3 days of incubation. The plates were incubated for 1 hour at the appropriate temperature and then overlaid with 50 μL of medium containing serial 2-fold dilutions of pleconaril in 2% DMSO. The final DMSO concentration in the assay was always 0.5%. No virus and no pleconaril controls were included on each plate. All drug concentrations were run in quadruplicate. The plates were then incubated for 3 days at the appropriate temperature followed by processing as described above.

[22] = tested on: HRV serotype 30; assay: HRV cytopathic effect assay; format: cell-based; details: Human rhinovirus sp.
Experimental: as §5

[23] = tested on: HRV serotype 86; assay: HRV cytopathic effect assay; format: cell-based; details: Human rhinovirus sp.
Experimental: as §5

[24] = tested on: HRV serotype 83; assay: HRV cytopathic effect assay; format: cell-based; details: Human rhinovirus sp.
Experimental: as §5

[25] = Aqueous solubility; format: physicochemical

Cc1cc(CCCOc2c(C)cc(-c3noc(C(F)(F)F)n3)cc2C)on1 [pleconaril, 3-[3,5-dimethyl-4-[3-(3-methyl-5-isoxazolyl)propoxy]phenyl]-5-(trifluoromethyl)-1,2,4-oxadiazole]
IC50 [1]: > 12.5 µM
IC50 [2]: > 12.5 µM
IC50 [3]: > 12.5 µM
IC50 [4]: > 12.5 µM
IC50 [5]: > 12.5 µM
IC50 [6]: > 12.5 µM
IC50 [7]: > 12.5 µM
IC50 [8]: > 12.5 µM
IC50 [9]: > 12.5 µM
IC50 [10]: > 12.5 µM
activity against unrelated viruses [11]: no activity
IC50 ([11]; Homo sapiens, all ten viruses): > 12.5 µM
protein bound [12]: > 99%
reversibility of binding to the virion ([13]; HRV serotype 50): binds irreversibly
% Recovery of input infectious virus (% SD) ([13]; serotype 50, about 10 times IC50, then diluted 10,000-fold, plaque assay): 11.9 (40) %
reversibility of binding to the virion ([14]; HRV-1A): reversible upon dilution
% Recovery of input infectious virus (% SD) ([14]; serotype 1A, about 10 times IC50, then diluted 10,000-fold, plaque assay): 85.4 (52.8) %
reversibility of binding to the virion ([15]; HRV serotype 14): binds irreversibly
% Recovery of input infectious virus (% SD) ([15]; serotype 14, about 10 times IC50, then diluted 10,000-fold, plaque assay): 16.4 (33.9) %
reversibility of binding to the virion ([16]; HRV-2): reversible upon dilution
% Recovery of input infectious virus (% SD) ([16]; serotype 2, about 10 times IC50, then diluted 10,000-fold, plaque assay): 65.8 (51.3) %
reversibility of binding to the virion ([17]; HRV serotype 89): binds irreversibly
% Recovery of input infectious virus (% SD) ([17]; serotype 89, about 10 times IC50, then diluted 10,000-fold, plaque assay): 9.9 (100) %
reversibility of binding to the virion ([18]; HRV-3): reversible upon dilution
% Recovery of input infectious virus (% SD) ([18]; serotype 3, about 10 times IC50, then diluted 10,000-fold, plaque assay): 92.8 (40.4) %
% Recovery of input infectious virus (% SD) [19]: 118 (53.5) %
log P [20]: high
IC50 [21]: 0.16 ± 0.03 µM
IC50 [22]: 0.23 ± 0.08 µM
IC50 [23]: 0.13 ± 0.1 µM
IC50 [24]: 0.02 ± 0.01 µM
solubility [25]: 0.02 µg/mL (≈ 0.0524 µM)
